# Test results published in patent US20080070938A1, “Medicinal composition for mitigating blood lipid or lowering blood homocysteine” (SANKYO COMPANY, LIMITED, priority 2002, published 2008).
# Legend:
# [1] = test system: Male Beagle dogs; assay: Test Example 2: blood homocysteine levels (HPLC) after 11 days of oral dosing; conditions: oral once daily, relative value, pre-treatment average = 100, mean of 5 dogs
# Source text: The required amount of the test substance calculated based on the body weight of the test animals was weighed and put in gelatin capsules (TORPAC Inc., ½ oz). After filling up, the capsules were placed in a box divided up for every animal and stored under freezing until use.
# The capsules filled up with the test substance were orally administered to the test animals once daily via an oral gavage between 9:00-12:30. The test animals were fasted for 2-3 hrs prior to each administration. The administration period was 11 days.
# Approximately 10 mL of blood was collected from the cephalic vein of each dog on -14 and -7 day (the 1st and the 2nd week prior to administration) as well as 4, 8, and 12 days after administration. The animals were fasted for approximately 18 hrs before collection of the blood.
# Blood homocysteine levels were determined by HPLC method used conventionally in current clinical examination.
# Relative values of blood homocysteine levels in animals treated with each dose of atorvastatin calcium or pyridoxine hydrochloride alone as well as the medicinal compositions of atorvastatin calcium plus pyridoxine hydrochloride were calculated against each converted average value calculated from that determined 2 weeks and 1 week before the treatment into 100.
# The values indicate average results calculated from 5 dogs per a group.
# [2] = test system: Male Beagle dogs; assay: Test Example 1: serum lipids (total cholesterol, LDL, triglyceride) after 11 days of oral dosing; assay type: in vivo; conditions: oral once daily, Pyridoxine hydrochloride 50 mg/Kg, relative value, pre-treatment average = 100, mean of 5 dogs
# Protocol: Pravastatin sodium manufactured at Sankyo Co., Ltd. was used. Simvastatin and atorvastatin synthesized at Chemtech Labo., Inc. were used.
# The administration period was 11 days.
# Approximately 10 mL of blood was collected from the cephalic vein of each dog on -14 and -7 day (the 1st and the 2nd week prior to administration) as well as 4, 8, and 12 days after administration.
# The collected blood was placed in a test tube and allowed to stand at room temperature for 30 min to 1 hour. Then the blood was centrifuged (approximately 1,600 g, for 10 min) and the resultant serum obtained was used for assays.
# Total cholesterol content was assayed by enzymatic assay method, while HDL, LDL, and triglyceride were determined by homogeneous method, chemically modified method, and enzymatic techniques, respectively. Clinical Laboratory System (TBA-120FR, Toshiba Medical Systems Corporation) was used in all of these determinations.
# Relative values of various levels of serum lipids in animals treated with each dose of pyridoxine hydrochloride, pravastatin sodium, simvastatin, or atorvastatin calcium alone as well as the medicinal compositions described above were calculated against each converted average value calculated from that determined 2 weeks and 1 week before the treatment into 100.
# [3] = test system: patients; conditions: treated for one year; 20,705 patients; placebo control group 1.9% decrease; cited from earlier work
# [4] = test system: patients with cardiovascular diseases; conditions: 6 successive weeks; patients with cardiovascular diseases (3 atorvastatin, 4 simvastatin); cited from earlier work
# [5] = 4 Days after treatment, Atorvastatin calcium 2 mg/Kg and/or Pyridoxine hydrochloride 5 mg/Kg
# [6] = 8 Days after treatment, Atorvastatin calcium 2 mg/Kg and/or Pyridoxine hydrochloride 5 mg/Kg
# [7] = 12 Days after treatment, Atorvastatin calcium 2 mg/Kg and/or Pyridoxine hydrochloride 5 mg/Kg
# [8] = 4 Days after treatment, Atorvastatin calcium 2 mg/Kg
# [9] = 8 Days after treatment, Atorvastatin calcium 2 mg/Kg
# [10] = 12 Days after treatment, Atorvastatin calcium 2 mg/Kg
# [11] = 4 Days after treatment, Simvastatin 1 mg/Kg
# [12] = 8 Days after treatment, Simvastatin 1 mg/Kg
# [13] = 12 Days after treatment, Simvastatin 1 mg/Kg
# [14] = 4 Days after treatment, Pravastatin sodium 2 mg/Kg
# [15] = 8 Days after treatment, Pravastatin sodium 2 mg/Kg
# [16] = 12 Days after treatment, Pravastatin sodium 2 mg/Kg
SMILES,"Percent changes of blood homocysteine levels [1, 5]","Percent changes of blood homocysteine levels [1, 6]","Percent changes of blood homocysteine levels [1, 7]","Percent changes of blood LDL levels [2, 8]","Percent changes of blood triglyceride levels [2, 8]","Percent changes of blood LDL levels [2, 9]","Percent changes of blood triglyceride levels [2, 9]","Percent changes of blood LDL levels [2, 10]","Percent changes of blood triglyceride levels [2, 10]",blood homocysteine levels (in words) [4],"Percent changes of blood LDL levels [2, 11]","Percent changes of blood total cholesterol levels [2, 11]","Percent changes of blood triglyceride levels [2, 11]","Percent changes of blood LDL levels [2, 12]","Percent changes of blood total cholesterol levels [2, 12]","Percent changes of blood triglyceride levels [2, 12]","Percent changes of blood LDL levels [2, 13]","Percent changes of blood total cholesterol levels [2, 13]","Percent changes of blood triglyceride levels [2, 13]","Percent changes of blood LDL levels [2, 14]",other results
"CC(C)c1c(C(=O)Nc2ccccc2)c(-c2ccccc2)c(-c2ccc(F)cc2)n1CC[C@H](O)C[C@@H](O)CC(=O)O [Atorvastatin calcium, (3R,5S)-7-[2-(4-fluorophenyl)-5-(1-methylethyl)-3-phenyl-4-phenylaminocarbonyl-1H-pyrrol-1-yl]-3,5-dihydroxyheptanoic acid]",107.2%,106.3%,106.9%,82.4%,77.2%,82.1%,86.3%,83.6%,86.4%,–,–,–,–,–,–,–,–,–,–,–,–
"CC[C@H](C)C(=O)O[C@H]1C[C@@H](C)C=C2C=C[C@H](C)[C@H](CC[C@@H]3C[C@@H](O)CC(=O)O3)[C@H]21 [lovastatin, (+)-(1S,3R,7S,8S,8aR)-1,2,3,7,8,8a-hexahydro-3,7-dimethyl-8-[2-[(2R,4R)-tetrahydro-4-hydroxy-6-oxo-2H-pyran-2-yl]ethyl]-1-naphth yl(S)-2-methylbutyrate]",–,–,–,–,–,–,–,–,–,–,–,–,–,–,–,–,–,–,–,–,decrease of blood homocysteine levels on average [3]: 3.7%
"CCC(C)(C)C(=O)O[C@H]1C[C@@H](C)C=C2C=C[C@H](C)[C@H](CC[C@@H]3C[C@@H](O)CC(=O)O3)[C@H]21 [Simvastatin, (+)-(1S,3R,7S,8S,8aR)-1,2,3,7,8,8a-hexahydro-3,7-dimethyl-8-[2-[(2R,4R)-tetrahydro-4-hydroxy-6-oxo-2H-pyran-2-yl]ethyl]-1-naphthyl 2,2-dimethylbutyrate]",–,–,–,–,–,–,–,–,–,decreased,83.9%,94.8%,66.4%,90.4%,94.1%,85.3%,81.3%,92.4%,82.0%,–,–
"CC(C)c1c(C(=O)Nc2ccccc2)c(-c2ccccc2)c(-c2ccc(F)cc2)n1CC[C@H](O)C[C@@H](O)CC(=O)O [atorvastatin, (3R,5S)-7-[2-(4-fluorophenyl)-5-(1-methylethyl)-3-phenyl-4-phenylaminocarbonyl-1H-pyrrol-1-yl]-3,5-dihydroxyheptanoic acid]",–,–,–,–,–,–,–,–,–,increased,–,–,–,–,–,–,–,–,–,–,–
"CC[C@H](C)C(=O)O[C@H]1C[C@H](O)C=C2C=C[C@H](C)[C@H](CC[C@@H](O)C[C@@H](O)CC(=O)O)[C@H]21 [Pravastatin sodium, (+)-(3R,5R)-3,5-dihydroxy-7-[(1S,2S,6S,8S,8aR)-6-hydroxy-2-methyl-8-[(S)-2-methylbutyryloxy]-1,2,6,7,8,8a-hexahydro-1-naphtyl]heptanoic acid]",–,–,–,–,–,–,–,–,–,–,–,–,–,–,–,–,–,–,–,92.6%,"Percent changes of blood LDL levels [2, 15]: 91.6%; Percent changes of blood LDL levels [2, 16]: 90.4%"
Cc1ncc(CO)c(CO)c1O.Cl [Pyridoxine hydrochloride],100.0%,116.0%,109.8%,101.7%,83.8%,95.0%,86.7%,91.4%,81.2%,–,101.7%,98.0%,83.8%,95.0%,93.3%,86.7%,91.4%,90.5%,81.2%,101.7%,"Percent changes of blood homocysteine levels ([1]; 4 Days after treatment, Pyridoxine hydrochloride 50 mg/Kg alone or with Atorvastatin calcium 2 mg/Kg): 101.4%; Percent changes of blood homocysteine levels ([1]; 8 Days after treatment, Pyridoxine hydrochloride 50 mg/Kg alone or with Atorvastatin calcium 2 mg/Kg): 111.5%; Percent changes of blood homocysteine levels ([1]; 12 Days after treatment, Pyridoxine hydrochloride 50 mg/Kg alone or with Atorvastatin calcium 2 mg/Kg): 103.0%; Percent changes of blood LDL levels [2, 15]: 95.0%; Percent changes of blood LDL levels [2, 16]: 91.4%"
